Ten molecules from US5719145A, “Amidine derivatives and platelet aggregation inhibitor containing the same” (Mitsui Toatsu Chemicals, Inc., priority 1996, dated 1998) can be followed below.

Where a name gives a salt, the structure may show the parent alone.

Experiment [1] has as its target T1, human fibrinogen receptor GP IIb/IIIa (Homo sapiens, UniProt P05106+P08514).
T1 construct: Concentrated and lyophilized human platelet (20 vial) (Organon Teknika Co.) was lysed; tissue Organon Teknika Co; host or cells: human platelets (lyophilized), lysed in Triton X-100
Nature of the experiment: Binding inhibition of biotinylated fibrinogen to GP IIb/IIIa. The note with it: purified human GP IIb/IIIa, read-out: Inhibition of GPIIb/IIIa . Fibrinogen Binding, IC50. Here is the method: Experiment for binding inhibition between GP IIb/IIIa and fibrinogen
1. Purification of human fibrinogen receptor GP IIb/IIIa
Concentrated and lyophilized human platelet (20 vial) (Organon Teknika Co.) was lysed in an antienzymic solution (80 ml) (1% Triton X-100, 10 mM Tris-HCl, 150 mM NaCl, 1 mM CaCl2, 10 μM leupeptin, 1 mM phenylmethane sulfonyl fluoride, pH 7.4), allowed to incubate for an hour at 4° C., and centrifuged at 30,000×g for 15 minutes to recover the supernatant solution containing 150 mg of protein. The GP IIb/IIIa was purified according to the method of Phillips et al. [Methods in Enzymology Vol. 215, (J. J. Hawigar, Eds.), 244-263, Acedemic Press Inc., San Diego].
2. Preparation of biotinylated fibrinogen
Human fibrinogen Grade L (KABI Co.) was purified by using Shepharose CL-6B and Lysine-Sepharose. Thus purified human fibrinogen (2.3 mg/ml) was dialyzed for 3 hours with 0.1M aqueous sodium bicarbonate solution at room temperature and successively diluted to 1 mg/ml. To the solution (4.5 ml) obtained, NHC-LC-Biotin (2 mg) (Pierce Co.) was added and reacted for 1 hour at room temperature to biotinylate fibrinogen. The reaction mixture was dialyzed at 4° C. for 24 hours with TBS (20 mM Tris-HCl, 150 mM NaCl, 1 mM CaCl2, 1 mM MgCl2, pH 7.4) to obtain biotinylated fibrinogen.
3. Binding inhibition of biotinylated fibrinogen to GP IIb/IIIa
Specimen drugs were dissolved and diluted with TBS containing 1% BSA. To each solution, an equal volume of biotinylated fibrinogen (2 μg/ml) dissolved in TBS containing 1% BSA, was added. The inhibition percentage of specimen drugs were measured by the method of Mori et al. [Jpn. J. Thromb. Hemost., 2, 323-399 (1991) with small modification].
Purified GP IIb/IIIa was diluted to 1.5 μg/ml in TBS containing 0.0005% of Triton X-100. The GP IIb/IIIa solution was added to a 96 well microplate (E.I.A/R.I.A. Plate, Costar Co.) in a volume of 100 μl for each well, and incubated at 4° C. for 24 hours to immobilize GP IIb/IIIa. The microplate was washed twice with a washing solution (TBS containing 0.01% of Tween 20). Thereafter TBS containing 3.5% of BSA was added to each well in a volume of 200 μl and blocking was carried out for about an hour at room temperature. The microplate was further washed twice with the washing solution, and successively a mixture of the specimen drug and the biotinylated fibrinogen was added in a volume of 100 μl/well and incubated for 24 hours at room temperature. The microplate was thereafter washed five times, and peroxidase-labeled streptoavidin (a kit of Amersham Co.) which was previously diluted 3000 times with TBS was added in a volume of 100 μl/well and incubated for about 30 minutes at room temperature. After washing the microplate 5 times, a 0.05M phosphate-citrate buffer solution (pH5) containing o-phenylenediamine(0.4 mg/ml) (manufactured by Sigma Co.) and H2 O2 (0.012%) was added in a volume of 200 μl/well to develop color for 20-40 minutes. The reaction was stopped by addition of 0.3M sulfuric acid in a volume of 50 μl/well and absorbance at 490 nm was measured with Immunoreader NJ-200 (manufactured by Inter Med Co.). […]

Experiment [2] deals with guinea pig platelets (platelet-rich plasma). Nature of the experiment: In vitro inhibition of platelet aggregation in guinea pig (ADP-induced, PRP). The format is cell-based. The note with it: Cavia porcellus, ADP final concentration 5 μM, read-out: Platelet aggregation inhibitory activity in guinea pig, IC50. Here is the method: In vitro experiment of platelet aggregation inhibition
1. Inhibition of platelet aggregation in Guinea pig
Blood of male guinea pig was collected with an injection syringe which contains 3.8 % sodium citrate as an anticoagulant in a ratio of 1 volume to 9 volumes of the blood. Successively, the collected blood mixture was subjected to centrifugation at 120×g for 15 minutes at room temperature to obtain platelet-rich plasma (PRP). An aliquot of PRP was further subjected to centrifugation at 1,200×g for 15 minutes to obtain platelet-poor plasma (PPP). Numbers of the platelet in PRP were measured with an automatic platelet counter: Sysmex PL-100 (manufactured by Toa Iyodenshi Co.) and PRP was diluted with PPP so as to adjust a platelet concentration to be about 300,000 particles/ μl. Platelet aggregation was measured by the following procedure with a 6 channel aggregometer: HEMA TRACER 1 (manufactured by NKK Co.).
After incubation of 240 μl of PRP at 37° C. for 2 minutes, 30 μl of the solvent of specimen as a control or of the specimen in various concentrations was added to PRP. Further 2 minutes later, 30 μl of adenosine diphosphate (final concentration: 5μM) was added to induce platelet aggregation. An inhibition percentage was obtained by comparing the maximum aggregation of the specimen drug group with that of control. […]

For experiment [3], the system named is human platelets (platelet-rich plasma). Nature of the experiment: In vitro inhibition of platelet aggregation in human (ADP-induced, PRP). The note with it: ADP final concentration 5 μM, read-out: Platelet aggregation inhibitory activity in human, IC50. It is filed as cell-based. The method, then:
2. Inhibition of platelet aggregation in human
Blood was collected from healthy human volunteers with an injection syringe and mixed one volume of 3.8% of sodium citrate as an anticoagulant to 9 volumes of the blood. Successively, the obtained blood mixture was subjected to centrifugation at 120×g for 15 minutes at room temperature to obtain platelet-rich plasma (PRP). An aliquot of PRP was further subjected to centrifugation at 1,200×g for 20 minutes to obtain platelet-poor plasma (PPP). Numbers of the platelet were measured with an automatic platelet counter: Sysmex PL-100 (manufactured by Toa Iyodenshi Co.) and PRP was diluted with PPP so as to adjust a platelet concentration to be about 250,000 particles/μl. Platelet aggregation was measured by the following procedure with a 6 channel aggregometer: HEMA TRACER 1 (manufactured by NKK Co.)
After incubation of 240 μl of PRP at 37° C. for 2 minutes, 30 μl of the solvent of specimen as a control or the specimen in various concentrations was added to PRP. Further 2 minutes later, 30 μl of adenosine diphosphate (final concentration: 5 μM) was added to induce platelet aggregation. An inhibition percentage was obtained by comparing the maximum aggregation of the specimen drug group with that of control. […]

T1 sequence (P08514 32-887 limits assumed): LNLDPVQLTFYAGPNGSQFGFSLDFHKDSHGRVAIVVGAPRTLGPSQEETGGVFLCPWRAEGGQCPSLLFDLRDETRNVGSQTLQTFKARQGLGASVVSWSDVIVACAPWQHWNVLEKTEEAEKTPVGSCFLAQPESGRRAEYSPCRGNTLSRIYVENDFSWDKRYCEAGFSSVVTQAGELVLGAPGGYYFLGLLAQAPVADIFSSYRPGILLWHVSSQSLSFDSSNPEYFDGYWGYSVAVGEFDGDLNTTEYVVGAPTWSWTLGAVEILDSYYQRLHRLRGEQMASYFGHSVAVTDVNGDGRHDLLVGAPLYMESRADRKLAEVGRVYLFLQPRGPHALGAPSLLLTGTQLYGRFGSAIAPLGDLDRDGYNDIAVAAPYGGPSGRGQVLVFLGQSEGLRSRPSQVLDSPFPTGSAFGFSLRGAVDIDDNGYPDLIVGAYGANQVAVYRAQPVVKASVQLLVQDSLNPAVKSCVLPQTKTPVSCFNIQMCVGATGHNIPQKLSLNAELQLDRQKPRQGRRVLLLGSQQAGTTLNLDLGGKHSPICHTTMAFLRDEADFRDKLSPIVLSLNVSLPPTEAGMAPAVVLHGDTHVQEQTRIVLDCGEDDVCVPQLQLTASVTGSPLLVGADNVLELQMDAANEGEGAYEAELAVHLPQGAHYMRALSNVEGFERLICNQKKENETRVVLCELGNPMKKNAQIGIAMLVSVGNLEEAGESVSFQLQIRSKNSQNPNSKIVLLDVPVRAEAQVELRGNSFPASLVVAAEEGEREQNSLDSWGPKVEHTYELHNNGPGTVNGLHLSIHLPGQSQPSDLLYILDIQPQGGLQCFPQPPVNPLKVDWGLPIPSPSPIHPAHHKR
T1 sequence (P08514 891-1039 partner limits assumed): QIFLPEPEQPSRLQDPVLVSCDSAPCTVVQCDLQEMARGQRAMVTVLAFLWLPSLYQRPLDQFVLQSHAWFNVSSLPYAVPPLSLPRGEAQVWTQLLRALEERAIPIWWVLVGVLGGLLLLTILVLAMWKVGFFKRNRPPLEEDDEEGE
T1 sequence (P05106 27-788): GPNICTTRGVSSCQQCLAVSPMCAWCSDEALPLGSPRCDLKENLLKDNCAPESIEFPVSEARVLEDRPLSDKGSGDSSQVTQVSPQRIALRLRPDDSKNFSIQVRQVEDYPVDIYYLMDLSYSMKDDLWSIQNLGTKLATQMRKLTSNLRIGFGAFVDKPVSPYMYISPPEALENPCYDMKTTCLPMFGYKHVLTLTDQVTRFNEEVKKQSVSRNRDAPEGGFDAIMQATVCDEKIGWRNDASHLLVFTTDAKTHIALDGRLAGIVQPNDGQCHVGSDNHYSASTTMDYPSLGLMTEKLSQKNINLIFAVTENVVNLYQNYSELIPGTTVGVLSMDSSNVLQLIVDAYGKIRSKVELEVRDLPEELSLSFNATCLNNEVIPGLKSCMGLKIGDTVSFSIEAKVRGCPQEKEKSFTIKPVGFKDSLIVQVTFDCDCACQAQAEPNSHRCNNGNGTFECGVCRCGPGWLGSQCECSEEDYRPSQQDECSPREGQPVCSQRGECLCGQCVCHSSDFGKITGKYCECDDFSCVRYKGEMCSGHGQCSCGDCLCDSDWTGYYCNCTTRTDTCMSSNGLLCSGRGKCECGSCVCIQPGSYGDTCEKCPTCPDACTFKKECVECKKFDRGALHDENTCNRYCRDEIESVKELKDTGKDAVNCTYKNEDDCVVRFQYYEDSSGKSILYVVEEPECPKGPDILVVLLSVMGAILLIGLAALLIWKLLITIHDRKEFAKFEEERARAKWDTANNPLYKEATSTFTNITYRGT

With `N=C(NCc1cccs1)c1ccc(C(=O)Nc2ccc3c(c2)CC(CC(=O)O)CC3)cc1` (stereo not drawn) [Example 37, 7-[[4-[N^2-(2-thenyl)amidino]benzoyl]amino]-1,2,3,4-tetrahydronaphthalene-2-acetic acid hydrochloride], the IC50 stood at 0.04 nM in experiment [1] and 220 nM in experiment [2].
`C#CCNC(=N)c1ccc(C(=O)Nc2ccc3c(c2)CC(CC(=O)O)CC3)cc1` (single isomer, unassigned; (-)) [Example 46, (-)-7-[[4-(N^2-propargylamidino)benzoyl]amino]-1,2,3,4-tetrahydronaphthalene-2-acetic acid hydrochloride]: the IC50 in experiment [1] is 0.11 nM; in experiment [2], 150 nM; in experiment [3], 29 nM.
In the same order, the values of `C#CCNC(=N)c1ccc(C(=O)Nc2ccc3c(c2)CC(CC(=O)O)CO3)cc1` (single isomer, unassigned; (-)) [Example 50, (-)-6-[[4-(N^2-propargylamidino)benzoyl]amino]chroman-3-acetic acid hydrochloride] are 0.22 nM, 200 nM and 44 nM.
On to `N=C(c1ccc(C(=O)Nc2ccc3c(c2)CC(CC(=O)O)CC3)cc1)N1CCCCC1` (stereo not drawn) [Example 18, 7-[[4-(piperidinoiminomethyl)benzoyl]amino]-1,2,3,4-tetrahydronaphthalene-2-acetic acid hydrochloride], for which the IC50 was 0.26 nM in experiment [1] and 140 nM in experiment [3].
As for `N=C(c1ccc(C(=O)Nc2ccc3c(c2)CC(CC(=O)O)CC3)cc1)N1CCOCC1` (single isomer, unassigned; (-)) [Example 48, (-)-7-[[4-(morpholinoiminomethyl)benzoyl]amino]-1,2,3,4-tetrahydronaphthalene-2-acetic acid hydrochloride], the IC50 in experiment [1] was 0.07 nM; in experiment [2], 69 nM; in experiment [3] it was 33 nM.
In the same order, the values of `N=C(c1ccc(C(=O)Nc2ccc3c(c2)CC(CC(=O)O)CO3)cc1)N1CCOCC1` (single isomer, unassigned; (-)) [Example 52, (-)-6-[[4-(morpholinoiminomethyl)benzoyl]amino]chroman-3-acetic acid hydrochloride] are 0.13 nM, 110 nM and 35 nM.
In the same order, the values of `N=C(c1ccc(C(=O)Nc2ccc3c(c2)CC(CC(=O)O)CC3)cc1)N1CCOCC1` (stereo not drawn) [Example 2, 7-[[4-(morpholinoiminomethyl)benzoyl]amino]-1,2,3,4-tetrahydronaphthalene-2-acetic acid hydrochloride] are 0.13 nM, 140 nM and 68 nM.
With `NC(=NCc1ccco1)c1ccc(C(=O)Nc2ccc3c(c2)CC(CC(=O)O)CC3)cc1` (stereo not drawn) [Example 30, 7-[[4-[N^2-(2-furfuryl)amidino]benzoyl]amino]-1,2,3,4-tetrahydronaphthalene-2-aceticacid hydrochloride], the IC50 turned out to be 0.14 nM in experiment [1] and 180 nM in experiment [2].
With `N=C(c1ccc(C(=O)Nc2ccc3c(c2)CC(CC(=O)O)CC3)cc1)N1CCSCC1` (stereo not drawn) [Example 13, 7-[[4-(thiomorpholinoiminomethyl)benzoyl]amino]-1,2,3,4-tetrahydronaphthalene-2-acetic acid hydrochloride], the values for the IC50 in experiment [1], in experiment [2] and in experiment [3] were 0.28 nM, 170 nM and 60 nM, respectively.
In the same order, the values of `C#CCN=C(N)c1ccc(C(=O)Nc2ccc3c(c2)CC(CC(=O)O)CC3)cc1` (stereo not drawn) [Example 25, 7-[[4-(N^2-propargylamidino)benzoyl]amino]-1,2,3,4-tetrahydronaphthalene-2-acetic acid hydrochloride] are 0.18 nM, 280 nM and 100 nM.
